# According to ChEMBL document CHEMBL1201862, “PubChem BioAssay data set” (2004):
# Structures can show the parent of a compound that is named as a salt. The source made the active and inactive calls.
# Columns and labels:
# [1] = target: Induced myeloid leukemia cell differentiation protein Mcl-1 (Homo sapiens, UniProt Q07820); format: functional
# Galanin receptor type 2 = Galanin receptor type 2 (Homo sapiens, UniProt O43603); assay: Dose Response cell-based high-throughput screening assay to identify antagonists of galanin receptor 2 (GALR2). [Related pubchem assays: 828, 866 ]; format: functional
# Galanin receptor type 2, sequence (O43603 whole entry): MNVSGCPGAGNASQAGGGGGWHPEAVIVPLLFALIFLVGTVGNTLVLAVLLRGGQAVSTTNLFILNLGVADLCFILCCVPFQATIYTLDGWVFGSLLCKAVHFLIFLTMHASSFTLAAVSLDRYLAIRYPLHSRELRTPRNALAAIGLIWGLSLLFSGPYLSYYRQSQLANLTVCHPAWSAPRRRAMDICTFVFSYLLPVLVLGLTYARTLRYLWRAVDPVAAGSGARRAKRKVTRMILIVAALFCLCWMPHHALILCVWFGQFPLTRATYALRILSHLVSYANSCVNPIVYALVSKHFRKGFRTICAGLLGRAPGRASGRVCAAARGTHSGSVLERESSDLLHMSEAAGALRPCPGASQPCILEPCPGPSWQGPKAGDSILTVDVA
# [2] = target: Potassium voltage-gated channel subfamily KQT member 2 (Rattus norvegicus, UniProt O88943, W236L); assay: potentiation of rat KCNQ2 current – cell-based, automated electrophysiology, mechanism study for KCNQ2 potentiator project, dose response (AID 2603); format: functional
# Potassium voltage-gated channel subfamily KQT member 2, sequence (O88943 whole entry W236L): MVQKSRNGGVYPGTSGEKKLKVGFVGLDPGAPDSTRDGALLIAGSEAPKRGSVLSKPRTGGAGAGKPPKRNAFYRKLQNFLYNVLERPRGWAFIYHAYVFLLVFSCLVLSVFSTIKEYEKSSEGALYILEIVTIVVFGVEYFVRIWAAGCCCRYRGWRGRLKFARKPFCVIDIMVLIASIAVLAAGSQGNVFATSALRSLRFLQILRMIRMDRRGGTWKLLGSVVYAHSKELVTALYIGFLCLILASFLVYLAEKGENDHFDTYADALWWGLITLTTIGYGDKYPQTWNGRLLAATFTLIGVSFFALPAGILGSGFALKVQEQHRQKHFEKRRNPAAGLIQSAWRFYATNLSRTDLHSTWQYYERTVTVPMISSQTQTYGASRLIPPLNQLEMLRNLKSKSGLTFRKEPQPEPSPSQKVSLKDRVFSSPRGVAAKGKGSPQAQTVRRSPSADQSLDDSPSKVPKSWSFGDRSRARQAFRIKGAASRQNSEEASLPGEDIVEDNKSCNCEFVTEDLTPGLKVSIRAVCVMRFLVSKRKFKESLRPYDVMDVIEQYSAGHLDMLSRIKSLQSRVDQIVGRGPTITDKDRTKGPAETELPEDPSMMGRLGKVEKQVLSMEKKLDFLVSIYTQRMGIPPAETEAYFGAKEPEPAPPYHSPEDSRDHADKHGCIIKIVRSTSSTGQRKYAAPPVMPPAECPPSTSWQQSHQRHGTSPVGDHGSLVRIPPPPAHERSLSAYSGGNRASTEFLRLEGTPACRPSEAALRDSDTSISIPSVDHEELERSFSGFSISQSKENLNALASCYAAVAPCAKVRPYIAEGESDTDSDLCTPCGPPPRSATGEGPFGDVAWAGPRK
# [3] = Luminescence Cell-Based Dose Confirmation to Identify Activators of 5'UTR Stem-Loop Driven Alpha-Synuclein mRNA Translation in H4 Neuroglioblastoma Cells. [Related pubchem assays: 1829 (Project Summary), 1814 (Primary HTS)]; format: functional
# [4] = Luminescence Cell-Based Dose Response HTS to Identify Activators of Luciferase Translation or Activity in H4 […] Cells. [Related pubchem assays: 1829 (Project Summary), 1814 (Primary HTS)]; format: functional
# [5] = Luminescence Cell-Based Dose Response to Identify Activators of 5'UTR Stem-Loop Driven Prion Protein mRNA Translation in H4-C Neuroglioblastoma Cells. [Related pubchem assays: 1829 (Project Summary), 1814 (Primary HTS)]; format: functional
# H4 = assay: Luminescence Cell-Based Dose Response HTS to Identify Activators of 5'UTR Stem-Loop Driven Prion Protein mRNA Translation in H4 Neuroglioblastoma Cells. [Related pubchem assays: 1829 (Project Summary), 1814 (Primary HTS)]; format: functional; conditions: Homo sapiens
# [6] = Luminescence Cell-Based Dose Response to Identify Activators of Luciferase Translation or Activity in H4-C Neuroglioblastoma Cells. [Related pubchem assays: 1829 (Project Summary), 1814 (Primary HTS)]; format: functional
# [7] = Plasmodium falciparum Dd2 Sybr green parasite growth Measured in Cell-Based and Microorganism Combination System Using Plate Reader - 2153-01_Inhibitor_Dose_DryPowder_Activity_Set10.; format: functional
# [8] = target: Solute carrier family 12 member 2/member 5 (Homo sapiens, UniProt P55011+Q9H2X9); assay: KCC2 and NKCC1 inhibition by rubidium flux, cell-based, NKCC1 counter-screen (AID 1734); format: functional, HEK293
# Vero = assay: inhibition of WNV-induced cytopathic effect – cell-based, CPE readout (AID 1621); format: functional; conditions: Chlorocebus sabaeus
# [9] = target: Muscarinic acetylcholine receptor M1 (Rattus norvegicus, UniProt P08482); assay: concentration-dependent potentiation of ACh at M1 – cell-based, calcium mobilization, CHO-K1, ACh EC20, dose response (AID 2425); format: functional
# Muscarinic acetylcholine receptor M1, sequence (P08482 whole entry): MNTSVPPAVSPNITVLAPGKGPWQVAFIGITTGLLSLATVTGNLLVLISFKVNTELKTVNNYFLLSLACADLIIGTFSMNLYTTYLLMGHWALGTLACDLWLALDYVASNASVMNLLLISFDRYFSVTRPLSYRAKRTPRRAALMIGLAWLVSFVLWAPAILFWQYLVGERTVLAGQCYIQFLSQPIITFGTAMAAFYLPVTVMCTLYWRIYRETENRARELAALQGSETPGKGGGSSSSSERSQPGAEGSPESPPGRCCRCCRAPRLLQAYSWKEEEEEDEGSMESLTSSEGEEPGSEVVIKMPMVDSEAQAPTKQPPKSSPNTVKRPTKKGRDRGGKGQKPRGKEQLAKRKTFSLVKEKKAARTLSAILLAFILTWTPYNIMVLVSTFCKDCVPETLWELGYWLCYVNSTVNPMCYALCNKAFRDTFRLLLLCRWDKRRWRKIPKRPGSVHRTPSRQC
# [10] = NIH3T3 cell viability loss – ATP luminescence, mouse fibroblasts, counter-screen, dose response (AID 2010); format: functional, cell-based;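 note: cells exposed to compound for about 90 hours before reading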
# HEK293 = assay: EBV LMP1 TES2 canonical NF-kB signalling blockers – cell-based, HEK293, luciferase, cherry-pick, dose response (AID 588343); format: functional; conditions: Homo sapiens
# [11] = Luminescent dose response cell-based high throughput screening assay for inhibitors of the Janus kinase 2 mutant JAK2V617F. [Related pubchem assays: 1446 (Primary screen.), 1521 (Confirmation assay.), 1486 (Counter screen.)]; format: functional
# [12] = target: ATP-binding cassette sub-family B member 6 (Homo sapiens, UniProt Q9NP58); assay: concentration-dependent ABCB6 porphyrin transport blockade – K562-ABCB6 cells, flow cytometry, cherry pick 1, dose response (AID 623955); format: functional; conditions: read-out: EC50_MICROM
# ATP-binding cassette sub-family B member 6, sequence (Q9NP58 whole entry): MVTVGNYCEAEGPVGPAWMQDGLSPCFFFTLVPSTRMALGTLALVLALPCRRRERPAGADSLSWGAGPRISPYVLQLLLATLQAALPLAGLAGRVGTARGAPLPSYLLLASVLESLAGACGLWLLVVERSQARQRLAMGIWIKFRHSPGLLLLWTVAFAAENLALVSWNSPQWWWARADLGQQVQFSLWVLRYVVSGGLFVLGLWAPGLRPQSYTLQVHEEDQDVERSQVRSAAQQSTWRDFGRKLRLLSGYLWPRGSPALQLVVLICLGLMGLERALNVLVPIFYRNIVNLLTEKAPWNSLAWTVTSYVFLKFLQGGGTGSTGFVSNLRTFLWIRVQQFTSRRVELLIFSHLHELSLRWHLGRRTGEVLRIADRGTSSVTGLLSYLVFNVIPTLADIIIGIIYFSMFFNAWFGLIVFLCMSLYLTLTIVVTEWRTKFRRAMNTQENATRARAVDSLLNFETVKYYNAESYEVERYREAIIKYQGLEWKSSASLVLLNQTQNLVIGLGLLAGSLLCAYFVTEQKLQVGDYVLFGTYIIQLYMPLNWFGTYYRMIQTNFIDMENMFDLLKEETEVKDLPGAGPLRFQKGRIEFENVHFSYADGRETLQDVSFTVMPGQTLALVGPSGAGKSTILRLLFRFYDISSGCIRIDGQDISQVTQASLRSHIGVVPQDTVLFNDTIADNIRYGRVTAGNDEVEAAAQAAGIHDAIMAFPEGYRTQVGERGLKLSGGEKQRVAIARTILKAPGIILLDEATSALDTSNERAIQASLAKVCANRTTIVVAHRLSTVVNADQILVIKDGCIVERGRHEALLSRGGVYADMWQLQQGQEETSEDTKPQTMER
# [13] = Trypanosoma cruzi growth suppression in host cells – NIH3T3 host cells, beta-gal luminescence, confirmation (AID 2044); format: functional, cell-based;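 note: intracellular parasites grown in NIH/3T3 mouse fibroblasts as host cells; luminescent beta-galactosidase reporter signal from transgenic T. cruzi replicating inside host cells; inhibitors lower the luminescence signal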
# [14] = target: E3 ubiquitin-protein ligase Mdm2 (Homo sapiens, UniProt Q00987); assay: MDM2-luc reporter signal enhancers, multi-concentration potency testing, MDM2 ubiquitin-protein ligase inhibitor program, whole-cell format, luminescence detection, 384-well microplate (AID 1394); format: functional;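 note: MDM2 E3 inhibitors raise luminescence so EC50 is for signal enhancement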
# E3 ubiquitin-protein ligase Mdm2, sequence (Q00987 whole entry): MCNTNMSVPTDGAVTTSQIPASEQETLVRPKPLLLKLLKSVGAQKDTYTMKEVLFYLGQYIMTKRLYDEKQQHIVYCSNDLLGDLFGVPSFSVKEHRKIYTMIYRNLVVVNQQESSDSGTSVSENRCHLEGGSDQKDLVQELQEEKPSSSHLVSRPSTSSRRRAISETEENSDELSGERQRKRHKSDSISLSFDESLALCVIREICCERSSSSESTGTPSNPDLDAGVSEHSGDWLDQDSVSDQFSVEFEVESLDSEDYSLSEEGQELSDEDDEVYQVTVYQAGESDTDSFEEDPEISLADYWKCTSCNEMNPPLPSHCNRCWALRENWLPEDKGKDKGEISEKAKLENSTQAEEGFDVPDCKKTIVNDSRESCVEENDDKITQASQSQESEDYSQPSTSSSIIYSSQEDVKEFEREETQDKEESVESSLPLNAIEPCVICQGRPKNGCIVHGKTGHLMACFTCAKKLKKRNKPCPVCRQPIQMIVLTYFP
# [15] = target: T1, Rac GTPase-activating protein 1 (Homo sapiens, UniProt Q9H0H5); assay: blockers of MgcRacGAP-driven Rac1 GTP hydrolysis – biochemical, ADP Hunter fluorescence, primary and confirmatory, confirmation (AID 624330); format: functional
# T1 sequence (Q9H0H5 whole entry): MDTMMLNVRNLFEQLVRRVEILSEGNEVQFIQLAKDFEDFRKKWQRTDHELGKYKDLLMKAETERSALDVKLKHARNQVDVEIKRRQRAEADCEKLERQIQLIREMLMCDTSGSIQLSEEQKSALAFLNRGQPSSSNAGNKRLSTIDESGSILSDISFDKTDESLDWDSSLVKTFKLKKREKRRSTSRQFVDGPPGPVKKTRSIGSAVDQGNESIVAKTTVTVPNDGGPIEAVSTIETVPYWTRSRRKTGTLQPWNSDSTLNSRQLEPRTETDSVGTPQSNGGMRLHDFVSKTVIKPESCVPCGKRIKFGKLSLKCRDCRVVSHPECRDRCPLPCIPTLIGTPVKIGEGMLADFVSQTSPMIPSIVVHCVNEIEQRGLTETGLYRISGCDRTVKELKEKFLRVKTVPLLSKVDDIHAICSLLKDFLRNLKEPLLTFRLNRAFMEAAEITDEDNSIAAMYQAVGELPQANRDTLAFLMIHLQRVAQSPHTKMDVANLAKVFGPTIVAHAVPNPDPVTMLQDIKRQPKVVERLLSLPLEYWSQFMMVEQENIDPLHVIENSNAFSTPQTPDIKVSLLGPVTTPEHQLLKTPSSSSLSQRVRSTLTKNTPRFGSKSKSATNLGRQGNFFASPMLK
# [16] = SNU-C1 cell viability reduction, dose response, CellTiter-Glo luminescence (AID 1117323); format: functional, cell-based
# [17] = Reduced DLD-1 viability, concentration-response, CellTiter-Glo luminescence (AID 1117352); format: functional
# Nonstructural protein 1 = Nonstructural protein 1 (Influenza A virus, UniProt Q194T2); format: functional, Influenza A virus (A/California/07/2009(H1N1))
# Nonstructural protein 1, sequence (Q194T2 whole entry): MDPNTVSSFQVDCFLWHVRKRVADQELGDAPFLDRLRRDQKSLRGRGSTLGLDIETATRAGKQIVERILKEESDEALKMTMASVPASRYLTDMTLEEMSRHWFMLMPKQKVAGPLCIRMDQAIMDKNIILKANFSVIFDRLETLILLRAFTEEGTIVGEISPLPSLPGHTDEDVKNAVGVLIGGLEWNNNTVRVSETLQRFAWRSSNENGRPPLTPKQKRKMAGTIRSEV
# [18] = cytotoxicity toward HCT116 cells – cell-based, CellTiter-Glo luminescence, IC50, dose response (AID 1117332); format: functional; conditions: HCT-116
# [19] = RKO cell viability reduction, dose response, CellTiter-Glo luminescence (AID 1117322); format: functional
# [20] = non-specific 3'UTR reporter inhibition in Clone20-Shn3RL – cell-based, Renilla luciferase, cherry-picked, counter-screen for Shn3 inhibitor project, dose response (AID 624133); format: functional
# [21] = HCT116 cell viability decrease, GSK3B pretreatment – CellTiter-Glo, IC50, dose response (AID 1117339); format: functional; conditions: HCT-116
# [22] = rise of 2N DNA cells, HeLa – IC50, dose response (AID 1117349); format: functional, cell-based
# [23] = rise of 4N DNA cells, HeLa – IC50, dose response (AID 1117351); format: functional, cell-based
# [24] = target: T2, DNA repair protein RAD52 homolog (Homo sapiens, UniProt P43351); format: functional, biochemical
# T2 sequence (P43351 whole entry): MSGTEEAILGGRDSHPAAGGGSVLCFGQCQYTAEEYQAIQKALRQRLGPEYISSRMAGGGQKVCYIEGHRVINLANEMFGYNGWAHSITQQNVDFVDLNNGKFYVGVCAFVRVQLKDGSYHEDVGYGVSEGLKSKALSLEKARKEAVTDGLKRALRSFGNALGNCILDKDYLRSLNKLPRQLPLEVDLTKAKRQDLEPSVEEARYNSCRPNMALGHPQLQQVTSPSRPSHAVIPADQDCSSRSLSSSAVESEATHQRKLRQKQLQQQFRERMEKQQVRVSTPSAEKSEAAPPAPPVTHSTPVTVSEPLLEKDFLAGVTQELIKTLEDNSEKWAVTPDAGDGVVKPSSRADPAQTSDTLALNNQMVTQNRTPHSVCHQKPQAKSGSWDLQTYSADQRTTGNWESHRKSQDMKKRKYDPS
# Paired box protein Pax-8 = Paired box protein Pax-8 (Homo sapiens, UniProt Q06710); assay: PAX8 transcriptional activity inhibition in RMG-I – RMG-I cells, luciferase, cherry-pick, dose response (AID 687027); format: functional, cell-based;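 note: luciferase reporter driven by Pax8 target thyroperoxidase promoter measured by SteadyGlo luminescence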
# Paired box protein Pax-8, sequence (Q06710 whole entry): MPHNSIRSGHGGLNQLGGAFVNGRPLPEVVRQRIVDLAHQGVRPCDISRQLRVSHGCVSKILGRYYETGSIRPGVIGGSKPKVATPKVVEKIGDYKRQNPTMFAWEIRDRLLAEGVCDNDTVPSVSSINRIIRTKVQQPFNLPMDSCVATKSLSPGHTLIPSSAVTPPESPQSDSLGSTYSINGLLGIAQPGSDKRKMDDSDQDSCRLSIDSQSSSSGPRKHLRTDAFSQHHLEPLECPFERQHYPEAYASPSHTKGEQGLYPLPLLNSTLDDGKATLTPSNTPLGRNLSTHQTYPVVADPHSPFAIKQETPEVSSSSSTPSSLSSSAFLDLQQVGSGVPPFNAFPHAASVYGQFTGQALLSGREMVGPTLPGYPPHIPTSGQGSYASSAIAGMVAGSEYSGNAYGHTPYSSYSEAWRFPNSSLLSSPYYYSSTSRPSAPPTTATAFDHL
# [25] = viability loss in THP-1 monocytes – THP-1 cells, cytotoxicity control for Vif-APOBEC3G degradation inhibitor project, dose response (AID 1117359); format: functional; conditions: THP-1
# SN12K1 = assay: cells; format: functional; conditions: Homo sapiens
# [26] = HGIII-sPLA2 enzyme inhibition potency – biochemical, QFRET, IC50, dose response (AID 743457);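 note: green fluorescence rise as the enzyme cleaves BODIPY PC-A2 in liposomes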
# P388/ADR = assay: cells; format: functional; conditions: Mus musculus
# [27] = HEK-293T viability loss after treatment – luminescence, T-cell screen hits, cytotoxicity control for TCR NF-kB inhibitor project, dose response (AID 489026); format: functional, cell-based;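 note: cells exposed to compound about 14 hours before the viability readout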
# [28] = loss of viability in HepG2 cells – cell-based, CellTiter-Glo, cherry-picked, cytotoxicity control for Shn3 inhibitor project, dose response (AID 624134); format: functional
# [29] = CellTiter-Glo luminescence survival assay, SW480 colon tumor line, concentration-response curve, half-maximal inhibitory concentration (AID 1117338); format: functional
# [30] = reduction of Shn3 3'UTR-driven luciferase in osteoblasts – cell-based, Clone20 osteoblasts, firefly luciferase, cherry-picked, dose response (AID 624132); format: functional;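 note: firefly luciferase luminescence from reporter carrying the Shn3 3'UTR in osteoblasts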
# [31] = target: Dual specificity tyrosine-phosphorylation-regulated kinase 1A (Rattus norvegicus, UniProt Q63470); format: biochemical, Homo sapiens
# P388 = assay: cells; format: functional; conditions: Mus musculus
# [32] = target: Glutathione-S-transferase (Schistosoma japonicum, UniProt Q26513); assay: GST-antibody interaction or FRET quenching – biochemical, TR-FRET, artefact control for Vif-APOBEC3G degradation inhibitor project, dose response (AID 1117362); format: functional
# [33] = target: Bifunctional protein GlmU (Mycobacterium tuberculosis, UniProt P9WMN3); assay: Inhibitors of Mycobacterial Glucosamine-1-phosphate acetyl transferase (GlmU). Secondary screen.; design: species or system Mycobacterium tuberculosis H37Rv
# Bifunctional protein GlmU, sequence (P9WMN3 whole entry): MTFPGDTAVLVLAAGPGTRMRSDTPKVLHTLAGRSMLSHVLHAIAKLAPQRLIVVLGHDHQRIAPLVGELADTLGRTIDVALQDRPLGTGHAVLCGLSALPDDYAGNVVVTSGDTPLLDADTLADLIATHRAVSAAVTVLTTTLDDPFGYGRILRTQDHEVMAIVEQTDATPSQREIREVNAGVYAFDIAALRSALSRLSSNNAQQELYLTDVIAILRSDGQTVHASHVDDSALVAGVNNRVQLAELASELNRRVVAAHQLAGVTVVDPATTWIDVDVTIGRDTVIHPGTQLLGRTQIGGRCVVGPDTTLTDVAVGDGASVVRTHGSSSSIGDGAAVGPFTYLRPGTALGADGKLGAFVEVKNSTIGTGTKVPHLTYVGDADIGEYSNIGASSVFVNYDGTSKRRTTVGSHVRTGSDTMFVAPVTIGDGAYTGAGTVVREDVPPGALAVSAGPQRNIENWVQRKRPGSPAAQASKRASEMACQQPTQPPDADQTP
# cells = format: functional, cell-based; conditions: INS-1E
# [34] = IC50 of insulin release inhibition, rat insulinoma INS-1E line, 5 mM glucose, cell-based (AID 1117331); format: functional
# [35] = target: 5-hydroxytryptamine receptor 1A (Homo sapiens, UniProt P08908); format: functional
# 5-hydroxytryptamine receptor 1A, sequence (P08908 whole entry): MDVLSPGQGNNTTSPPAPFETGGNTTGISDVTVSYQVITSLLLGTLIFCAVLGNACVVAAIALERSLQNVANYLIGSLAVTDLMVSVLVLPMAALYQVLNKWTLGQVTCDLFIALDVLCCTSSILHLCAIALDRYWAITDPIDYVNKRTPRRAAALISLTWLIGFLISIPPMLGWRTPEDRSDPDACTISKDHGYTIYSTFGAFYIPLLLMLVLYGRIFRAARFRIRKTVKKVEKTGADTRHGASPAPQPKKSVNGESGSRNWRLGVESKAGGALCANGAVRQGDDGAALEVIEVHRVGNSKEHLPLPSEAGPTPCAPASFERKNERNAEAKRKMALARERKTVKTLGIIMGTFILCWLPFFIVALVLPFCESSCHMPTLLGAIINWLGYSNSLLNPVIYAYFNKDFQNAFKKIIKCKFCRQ
# Induced myeloid leukemia cell differentiation protein Mcl-1, sequence (Q07820 whole entry): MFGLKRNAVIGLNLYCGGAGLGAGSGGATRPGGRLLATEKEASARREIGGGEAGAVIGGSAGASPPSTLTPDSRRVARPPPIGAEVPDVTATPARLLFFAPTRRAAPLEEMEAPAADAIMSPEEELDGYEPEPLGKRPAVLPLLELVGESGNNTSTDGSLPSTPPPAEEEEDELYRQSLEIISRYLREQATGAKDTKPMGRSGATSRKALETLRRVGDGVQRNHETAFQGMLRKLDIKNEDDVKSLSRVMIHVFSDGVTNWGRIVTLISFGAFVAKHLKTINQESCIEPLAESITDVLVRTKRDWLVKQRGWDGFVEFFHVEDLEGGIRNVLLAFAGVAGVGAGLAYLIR
smiles,measurement,setting,value
CCCOc1[nH]cnc2c3ccccc3nc1-2,IC50,[1],19600 nM (not active)
same,IC50,Galanin receptor type 2,> 42000 nM (not active)
Cc1ccc(NC(=O)NCC2CC2(Cl)Cl)cc1 (configuration not stated),EC50,[2],2170 nM (active)
same,EC50,[3],1720 nM (active)
same,EC50,[4],226 nM (active)
same,EC50,[5],> 12000 nM (not active)
same,EC50,H4,8760 nM (active)
same,EC50,[6],399 nM (active)
COc1ccc(-c2ccccc2[C@@H]2[C@H](C#N)N(C(=O)C3CCCC3)[C@H]2CO)cc1,AC50,[7],19100 nM (active)
O=C(Nc1ccc(S(=O)(=O)NCc2ccccc2)cc1)c1ccccc1[N+](=O)[O-],IC50,[8],5100 nM (active)
Cc1ccc2nc(O)c(CN(CCCN(C)C)C(=O)Nc3ccc(Cl)cc3)cc2c1,IC50,Vero,17800 nM (active)
Cn1cc(-c2ccc(CN3C(=O)C(=O)c4cccc(F)c43)c(F)c2)cn1,EC50,[9],2320 nM (active)
CCN(CC)S(=O)(=O)c1cccc(N2C(=O)/C(=C\Nc3ccccc3C(=O)O)c3ccccc3C2=O)c1,EC50,[10],> 60000 nM (not active)
same,AC50,HEK293,167 nM (active)
same,IC50,[11],> 40000 nM (not active)
same,EC50,[12],210 nM (active)
same,EC50,[13],13700 nM (active)
O=C(CSc1nnc(-c2cccnc2)n1C1CCCCC1)NC1CCCCC1,EC50,[14],40 nM (not active)
O=C1c2c(O)ccc(O)c2C(=O)c2c(NCCNCCO)ccc(NCCNCCO)c21 [MITOXANTRONE HYDROCHLORIDE],IC50,[15],14800 nM (active)
same,IC50,[16],1720 nM (active)
same,IC50,[17],1600 nM (active)
same,IC50,Nonstructural protein 1,1100 nM (active)
same,IC50,[18],1230 nM (active)
same,IC50,[19],1030 nM (active)
same,AC50,[20],33600 nM (active)
same,IC50,[21],1 nM (active)
same,IC50,[22],> 10000 nM (inactive)
same,IC50,[23],> 10000 nM (inactive)
same,AC50,[24],< 150 nM (active)
same,AC50,Paired box protein Pax-8,690 nM (active)
same,CC50,[25],< 80 nM (active)
same,GI50,SN12K1,5.3 nM (active)
same,IC50,[26],> 122000 nM (inactive)
same,GI50,P388/ADR,22.2 nM (active)
same,IC50,[27],37900 nM (inactive)
same,AC50,[28],535 nM (active)
same,IC50,[29],1830 nM (active)
same,AC50,[30],658 nM (active)
same,AC50,[31],9510 nM (active)
same,GI50,P388,3.55 nM (active)
same,IC50,[32],3850 nM (active)
O=c1c(C(c2ccccn2)c2c(O)oc3ccccc3c2=O)c(O)oc2ccccc12,IC50,[33],152000 nM (active)
Cc1ccc(S(=O)(=O)NC(=O)NN2CC3CCCC3C2)cc1 (configuration not stated) [GLICLAZIDE],IC50,[22],> 10000 nM (inactive)
same,IC50,[23],> 10000 nM (inactive)
same,IC50,cells,> 33300 nM (inactive)
same,IC50,[34],1830 nM (active)
Cc1[nH]c2c(Cl)cccc2c1CCN,EC50,[35],> 50000 nM (not active)
